Measured values as given in patent US20220025331A1, “METHODS AND SYSTEMS FOR IMPROVING CELLS FOR USE IN THERAPY” (priority 2017, published 2022).

Assays:
P3R foAC neocartilage [1] = experiment: Phase 3: TCL treatment of cytochalasin D treated P3R Opt neocartilage; assay type: cell-based, sheep; conditions: Phase 3, P3R Opt, 2 million cells
Procedure: (§1) Chondrocyte Isolation: Fetal ovine articular chondrocytes (foACs) were harvested from the patellofemoral surfaces of 120-day gestation Dorper cross sheep obtained as medical waste (UC Davis School of Veterinary Medicine). Cartilage from the whole surface of both condyles and the trochlear groove was minced into approximately 1 mm^3 pieces, then washed and centrifuged (500 G for 5 minutes) three times with Dulbecco's Modified Eagle Medium containing 4.5 g/L glucose and GlutaMAX (DMEM; Gibco) and 2% (v/v) penicillin/streptomycin/fungizone (PSF; Lonza). The tissue was digested in 0.2% (w/v) collagenase type II (Worthington) in DMEM containing 3% (v/v) fetal bovine serum (FBS; Atlanta Biologicals) for 18 hours at 37° C. with gentle rocking. After digestion, the resultant cell solutions were filtered through 70 μm cell strainers. For Studies 1-3, foACs were washed with ACK buffer (154.4 mM ammonium chloride (Sigma), 10 mM potassium bicarbonate (Fisher Scientific), 50 mM EDTA tetrasodium salt (Acros Organics) in ultrapure water for three minutes as previously described. These primary (P0) foACs were then frozen in DMEM with 20% (v/v) DMSO (Sigma) and 10% (v/v) FBS.
Chondrocyte Expansion and Redifferentiation: Previously frozen P0 foACs were seeded in T-225 flasks at 1.5×10^4 cells/cm^2 and expanded in chemically defined chondrogenic medium (CHG medium) (DMEM containing 1% PSF, 1% ITS+ premix (BD Biosciences), 1% non-essential amino acids (Gibco), 100 nM dexamethasone (Sigma), 50 mg/mL ascorbate-2-phosphate (Sigma), 40 g/mL L-proline (Sigma), and […] sodium pyruvate (Sigma)) with 2% FBS and chondrogenically tuned TFP supplementation (1 ng/mL TGF-μ1, 5 ng/mL bFGF, 10 ng/mL PDGF; al from PeproTech). Media was exchanged every 2-3 days. At confluence, cells were lifted with 0.5% Trypsin-EDTA (Gibco) for 5 minutes followed by digestion of the cell layers with DMEM containing 0.2% collagenase type II and 2% FBS for approximately 1 hour at 37° C., triturating every 20 minutes. […] Following dissociation of the aggregates, cells were filtered through a 70 μm cell strainer and counted. […]

P3R foAC neocartilage [2] = experiment: Phase 2: cytochalasin D and hyaluronidase treatment of P3R (passaged, redifferentiated) neocartilage; assay type: cell-based, sheep; conditions: for neocartilage thickness / neocartilage wet weight / construct diameter: P3R Opt; for construct diameter: Cyto D 2 μM first 48 hours, Hya 200 units/mL at seeding
Procedure: as §1
(§2) Chondrocyte Expansion and Redifferentiation: Previously frozen P0 foACs were seeded in T-225 flasks at 1.5×10^4 cells/cm^2 and expanded in chemically defined chondrogenic medium (CHG medium) (DMEM containing 1% PSF, 1% ITS+ premix (BD Biosciences), 1% non-essential amino acids (Gibco), 100 nM dexamethasone (Sigma), 50 mg/mL ascorbate-2-phosphate (Sigma), 40 g/mL L-proline (Sigma), and […] sodium pyruvate (Sigma)) with 2% FBS and chondrogenically tuned TFP supplementation (1 ng/mL TGF-μ1, 5 ng/mL bFGF, 10 ng/mL PDGF; al from PeproTech). Media was exchanged every 2-3 days. At confluence, cells were lifted with 0.5% Trypsin-EDTA (Gibco) for 5 minutes followed by digestion of the cell layers with DMEM containing 0.2% collagenase type II and 2% FBS for approximately 1 hour at 37° C., triturating every 20 minutes. The resulting cell solution was filtered through a 70 μm cell strainer and reseeded into T-225 flasks to achieve three passages (P3). P3 foACs underwent aggregate redifferentiation (P3R) as previously described. Briefly, 750,000 cells/mL CHG medium containing TGB supplementation (10 ng/mL TGF-β1, 100 ng/mL GDF-5, 100 ng/mL BMP-2; al from PeproTech) were cultured in 100 mm×20 mm petri dishes coated with 1% (w/v) molecular biology grade agarose (Thermo Fisher Scientific) made with phosphate buffered saline (PBS; Sigma) to create a non-adherent environment. Aggregate cultures were maintained on an orbital shaker at 60 rpm for the first 3 days and remained static for the remainder of the 14-day redifferentiation period. Media was exchanged every 2-3 days. At the end of the culture period, aggregates were digested with 0.5% Trypsin-EDTA for 20 minutes, followed by 0.2% collagenase in DMEM with 2% FBS for approximately 2 hours at 37° C., triturating every 20 minutes. Following dissociation of the aggregates, cells were filtered through a 70 μm cell strainer and counted.
(§3) Neocartilage Construct Seeding and Culture: P0, P3, or P3R foACs were self-assembled into engineered neocartilage constructs in non-adherent agarose wells. A sterile stainless steel mold consisting of 5 mm diameter cylindrical posts was inserted into a 48-well plate, each well containing 1 mL molten 2% (w/v) agarose to create a single agarose well per plate well. After solidification of the agarose at room temperature, the mold was removed. Agarose wells were filled with CHG medium exchanged twice over the course of 5 days to ensure saturation of the agarose before seeding. For each phase, cells were seeded into 5 mm agarose wells in 100 μL CHG medium per well. In Phase 1, P0 or P3R foACs were each seeded at five densities: 2, 3, 4, 5, and 6 million cells per construct. In Phase 2, P3 and P3R foACs were seeded at 2 million cells per construct. In Phase 3, 2 million P3R foACs were seeded. […]

P3 and P3R foACs = experiment: Chondrocyte F-actin visualization (phalloidin staining); assay type: cell-based, sheep
Procedure: Chondrocyte Actin Visualization: In Phase 2, to visualize the effects of cytochalasin D treatment on cytoskeletal-mediated chondrogenic redifferentiation, F-actin staining was performed on untreated P0 foACs and both cytochalasin D treated and untreated P3 and P3R foACs. Approximately 8×10^3 cells/cm^2 were allowed to attach to glass slides for 1 hour in the presence of 2% FBS. Non-adherent cells were washed away with two exchanges of PBS, followed by the fixation of attached cells in 3.9% formaldehyde in PBS for 10 minutes. After another two washes with PBS, fixed cells were permeabilized with 0.1% Triton-X 100 (Sigma) in PBS for 5 minutes. Following two washes with PBS, cells were stained with CF594-conjugated phalloidin (Biotium; 1200 dilution in PBS) for 30 minutes. Excess stain was washed away with two exchanges of PBS and the cells were counterstained with DAPI-containing Vectashield (Vector Laboratories) and coverslipped for visualization using a Texas Red fluorescent channel.

P3 foAC neocartilage = experiment: Phase 2: cytochalasin D and hyaluronidase treatment of P3 (passaged, not redifferentiated) neocartilage; assay type: cell-based, sheep; conditions: P3, 2 million cells/construct; for construct diameter: Cyto D 2 μM first 48 hours, Hya 200 units/mL at seeding
Procedure: as §1, §2, §3

[3] = system: adult human costal chondrocytes (ahCCs); experiment: Cyto D treatment of self-assembled neocartilage from human costal chondrocytes (FIG. 18); assay type: cell-based; conditions: ahCCs P3 rejuvenated, 2 million cells, 2 μM at day 0-2
Procedure: Control constructs were untreated. Constructs treated with cytochalasin D (Cyto D) were treated with 2 μM at day 0-2. […] This example clearly illustrates that it is not obvious that a treatment that is beneficial for cells from one species will be beneficial when applied to cells from another species.

[4] = P3R Opt neocartilage, over the untreated group
[5] = cytochalasin D treated P3R Opt neocartilage
[6] = foACs P3 rejuvenated, 2 million cells, 2 μM at day 0-2, FIG. 18

Work on C=C1[C@@H](C)[C@H]2[C@H](Cc3ccccc3)NC(=O)[C@]23[C@H](OC(C)=O)/C=C/[C@@](C)(O)C(=O)[C@@H](C)C/C=C/[C@H]3[C@@H]1O [cytochalasin D] yielded a neocartilage diameter (P3R foAC neocartilage [1]) of 6.5±0.4 mm, a neocartilage thickness (P3R foAC neocartilage [1]) of 0.8±0.2 mm and a neocartilage wet weight (P3R foAC neocartilage [1]) of 87.1 ± 3.6 mg. For the same molecule, the “increase of aggregate modulus over the P0 control” value (P3R foAC neocartilage [2]; ACK treated P3R cells, 2 million cells/construct, vs untreated P0 control) was 9.6 fold, the neocartilage aggregate modulus (P3R foAC neocartilage [2]; ACK treated P3R chondrocytes seeded at 2 million cells/construct) was 400 kPa and the “increase in compressive stiffness (aggregate modulus)” value (P3R foAC neocartilage [2]; [4]) was 0.9 fold. The “increase in tensile stiffness” value (P3R foAC neocartilage [2]; [4]) was 1.0 fold, the “increase in tensile strength” value (P3R foAC neocartilage [2]; [4]) was 2.7 fold and the neocartilage thickness (P3R foAC neocartilage [2]; 2 million cells/construct) was 0.7±0.1 mm. The neocartilage wet weight (P3R foAC neocartilage [2]; 2 million cells/construct) was 28.1 ± 2.6 mg, the construct diameter (P3R foAC neocartilage [2]; 2 million cells/construct) was 6.5±0.2 mm and the GAG/wet weight (P3R foAC neocartilage [2]; P3R neocartilage, FIG. 8C) was “increased”. For the same molecule, the “functionality index (FI) with respect to native fetal cartilage” value (P3R foAC neocartilage [2]; [5]) was 1.1, the “functionality index (FI) with respect to native juvenile cartilage” value (P3R foAC neocartilage [2]; [5]) was 0.83 and the compressive aggregate modulus (P3R foAC neocartilage [2]; [6]) was “significantly increased”. For the same molecule, the shear modulus (P3R foAC neocartilage [2]; [6]) was “significantly increased”, the actin arrangement (P3 and P3R foACs; P3R chondrocytes) was “localized more of the actin cortically than in untreated P3R cells” and the “cell shape and actin arrangement” value (P3 and P3R foACs; P3 chondrocytes) was “induced a rounded cell shape”. For the same molecule, the neocartilage thickness (P3 foAC neocartilage) was 0.4±0.1 mm, the neocartilage wet weight (P3 foAC neocartilage) was 8.4 ± 1.0 mg and the construct diameter (P3 foAC neocartilage) was 3.7±0.2 mm. For the same molecule, the aggregate modulus [3] was “significantly decreased” and the shear modulus [3] was “significantly decreased”.
hyaluronidase was tested, and the neocartilage thickness (P3R foAC neocartilage [2]; 2 million cells/construct) was 0.8±0.2 mm, the neocartilage wet weight (P3R foAC neocartilage [2]; 2 million cells/construct) was 23.9 ± 1.4 mg and the construct diameter (P3R foAC neocartilage [2]; 2 million cells/construct) was 5.9±0.0 mm. It also gave a neocartilage thickness (P3 foAC neocartilage) of 2.0±0.2 mm, a neocartilage wet weight (P3 foAC neocartilage) of 6.7 ± 0.4 mg and a construct diameter (P3 foAC neocartilage) of 2.6±0.1 mm.
